Experiments:
[1] = tested on: soybean; experiment: Test C postemergence; type: in vivo, Glycine max; conditions: for Soybean plant response rating / Plant response rating, Soybean: scale 0 to 100 (0 no effect, 100 complete control)
Procedure, shortened: (§1)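 Sown in loam/sand → sprayed pre-emergence; or grown to 1–4 leaves in peat mix → sprayed post-emergence. Same solvent/surfactant formulation both ways. Greenhouse 13–15 d. Score 0–100 visual.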

[2] = tested on: barnyardgrass; experiment: Test A postemergence; type: in vivo, Echinochloa crus-galli
Procedure, shortened: (§2)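 Injury scores run from 0, no effect, to 100, complete control, judged by eye against untreated plants roughly 10 days after treatment. Chemicals carried a surfactant in a non-phytotoxic solvent and went onto loam–sand soil preemergence or onto one- to two-leaf seedlings postemergence.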

[3] = tested on: wheat; experiment: Test A postemergence; type: in vivo, Triticum aestivum
Procedure, shortened: as §2

[4] = tested on: galium; experiment: Test C postemergence; type: in vivo, Galium aparine; conditions: for Galium plant response rating / Plant response rating, Galium: scale 0 to 100 (0 no effect, 100 complete control)
Procedure, shortened: as §1

[5] = tested on: barnyardgrass; experiment: Test A preemergence; type: in vivo, Echinochloa crus-galli; conditions: for Barnyardgrass plant response rating: 500 g ai/ha
Procedure, shortened: as §2

[6] = tested on: ragweed; experiment: Test C postemergence; type: in vivo, Ambrosia elatior; conditions: for Ragweed plant response rating / Plant response rating, Ragweed: scale 0 to 100 (0 no effect, 100 complete control)
Procedure, shortened: as §1

[7] = tested on: corn; experiment: Test A preemergence; type: in vivo, Zea mays; conditions: for Corn plant response rating: 500 g ai/ha
Procedure, shortened: as §2

[8] = tested on: lambsquarters; experiment: Test C postemergence; type: in vivo, Chenopodium album; conditions: for Lambsquarters plant response rating / Plant response rating, Lambsquarters: scale 0 to 100 (0 no effect, 100 complete control)
Procedure, shortened: as §1

[9] = tested on: giant foxtail; experiment: Test C postemergence; type: in vivo, Setaria faberii; conditions: for Foxtail, Giant plant response rating / Plant response rating, Foxtail, Giant: scale 0 to 100 (0 no effect, 100 complete control)
Procedure, shortened: as §1

[10] = tested on: velvetleaf; experiment: Test C postemergence; type: in vivo, Abutilon theophrasti; conditions: for Velvetleaf plant response rating / Plant response rating, Velvetleaf: scale 0 to 100 (0 no effect, 100 complete control)
Procedure, shortened: as §1

[11] = tested on: blackgrass; experiment: Test C postemergence; type: in vivo, Alopecurus myosuroides; conditions: for Blackgrass plant response rating / Plant response rating, Blackgrass: scale 0 to 100 (0 no effect, 100 complete control)
Procedure, shortened: as §1

[12] = 16 g ai/ha, postemergence, 0 is no effect, 100 is complete control
[13] = 31 g ai/ha, postemergence, visual rating, 13 to 15 days
[14] = 125 g ai/ha, postemergence, visual rating
[15] = Postemergence, 62 g ai/ha, 13 to 15 days
[16] = 125 g ai/ha, 0 to 100 scale where 0 is no effect and 100 is complete control
[17] = 500 g ai/ha, 0 to 100 scale where 0 is no effect and 100 is complete control
[18] = 0 to 100 scale where 0 is no effect and 100 is complete control
[19] = Postemergence, 31 g ai/ha, 13 to 15 days
[20] = 500 g ai/ha, 0 to 100 scale, 0 no effect, 100 complete control
[21] = 0 to 100 scale, 0 no effect, 100 complete control, approx. 10 days

SMILES: FC(F)c1cnn(-c2c(Cl)cccc2Oc2ncc(Cl)cn2)c1 [Compound 192]
- Plant response rating (0 to 100), Soybean [1, 12]: 30
- Soybean plant response rating [1, 13]: 30
- Plant response rating, Soybean [1, 14]: 80
- Plant response rating, Soybean [1, 15]: 75
- Barnyardgrass plant response rating [2, 16]: 60
- Plant response rating, Barnyardgrass [2, 17]: 90
- Wheat plant response rating [3, 16]: 0
- Plant response rating, Wheat [3, 17]: 50
- Plant response rating (0 to 100), Galium [4, 12]: 60
- Galium plant response rating [4, 13]: 80
- Plant response rating, Galium [4, 14]: 85
- Plant response rating, Galium [4, 15]: 80
- Barnyardgrass plant response rating (0 to 100 scale, 0 is no effect, 100 is complete control) ([5]; 125 g ai/ha): 60
- Barnyardgrass plant response rating [5, 18]: 100
- Plant response rating (0 to 100), Ragweed [6, 12]: 10
- Ragweed plant response rating [6, 13]: 25
- Plant response rating, Ragweed [6, 14]: 45
- Plant response rating, Ragweed [6, 15]: 15
- Corn plant response rating (0 to 100 scale) ([7]; 125 g ai/ha): 0
- Corn plant response rating [7, 18]: 50
- Plant response rating (0 to 100), Lambsquarters [8, 12]: 10
- Lambsquarters plant response rating [8, 13]: 25
- Plant response rating, Lambsquarters [8, 14]: 90
- Plant response rating, Lambsquarters [8, 15]: 90
- Plant response rating (0 to 100), Foxtail, Giant [9, 12]: 5
- Foxtail, Giant plant response rating [9, 13]: 5
- Plant response rating, Foxtail, Giant [9, 14]: 10
- Plant response rating, Foxtail, Giant [9, 15]: 5
- Plant response rating (0 to 100), Velvetleaf [10, 12]: 35
- Velvetleaf plant response rating [10, 13]: 60
- Plant response rating, Velvetleaf [10, 14]: 75
- Plant response rating, Velvetleaf [10, 15]: 65
- Plant response rating (0 to 100), Blackgrass [11, 12]: 0
- Blackgrass plant response rating [11, 13]: 0
- Plant response rating, Blackgrass [11, 14]: 10
- Plant response rating, Blackgrass [11, 15]: 5

SMILES: FC(F)(F)c1cnn(-c2c(Br)cccc2Oc2ncc(Cl)cn2)c1 [Compound 191]
- Plant response rating (0 to 100), Soybean [1, 12]: 40
- Soybean plant response rating [1, 13]: 55
- Plant response rating, Soybean [1, 14]: 30
- Plant response rating, Soybean ([1]; Postemergence, 62 g ai/ha): 60
- Barnyardgrass plant response rating [2, 16]: 50
- Plant response rating, Barnyardgrass [2, 17]: 90
- Wheat plant response rating [3, 16]: 20
- Plant response rating, Wheat [3, 17]: 40
- Plant response rating (0 to 100), Galium [4, 12]: 80
- Galium plant response rating [4, 13]: 80
- Plant response rating, Galium [4, 14]: 98
- Plant response rating, Galium ([4]; Postemergence, 62 g ai/ha): 98
- Barnyardgrass plant response rating (0 to 100 scale, 0 is no effect, 100 is complete control) ([5]; 125 g ai/ha): 70
- Barnyardgrass plant response rating [5, 18]: 100
- Plant response rating (0 to 100), Ragweed [6, 12]: 5
- Ragweed plant response rating [6, 13]: 20
- Plant response rating, Ragweed [6, 14]: 35
- Plant response rating, Ragweed ([6]; Postemergence, 62 g ai/ha): 30
- Corn plant response rating (0 to 100 scale) ([7]; 125 g ai/ha): 0
- Corn plant response rating [7, 18]: 30
- Plant response rating (0 to 100), Lambsquarters [8, 12]: 85
- Lambsquarters plant response rating [8, 13]: 60
- Plant response rating, Lambsquarters [8, 14]: 95
- Plant response rating, Lambsquarters ([8]; Postemergence, 62 g ai/ha): 75
- Plant response rating (0 to 100), Foxtail, Giant [9, 12]: 10
- Foxtail, Giant plant response rating [9, 13]: 10
- Plant response rating, Foxtail, Giant [9, 14]: 15
- Plant response rating, Foxtail, Giant ([9]; Postemergence, 62 g ai/ha): 10
- Plant response rating (0 to 100), Velvetleaf [10, 12]: 50
- Velvetleaf plant response rating [10, 13]: 65
- Plant response rating, Velvetleaf [10, 14]: 65
- Plant response rating, Velvetleaf ([10]; Postemergence, 62 g ai/ha): 75
- Plant response rating (0 to 100), Blackgrass [11, 12]: 0
- Blackgrass plant response rating [11, 13]: 0
- Plant response rating, Blackgrass [11, 14]: 10
- Plant response rating, Blackgrass ([11]; Postemergence, 62 g ai/ha): 5

SMILES: N#Cc1cccc(Oc2ncc(Br)cn2)c1-n1cc(Br)cn1 [Compound 57]
- Plant response rating (0 to 100), Soybean ([1]; 125 g ai/ha, postemergence): 95
- Plant response rating (0 to 100), Soybean ([1]; 250 g ai/ha, postemergence): 100
- Plant response rating, Soybean [1, 19]: 65
- Plant response rating, Soybean ([1]; Postemergence, 62 g ai/ha): 85
- Plant response rating, Barnyardgrass [2, 16]: 90
- Plant response rating, Barnyardgrass [2, 20]: 100
- Plant response rating, Wheat [3, 16]: 0
- Plant response rating, Wheat [3, 20]: 30
- Plant response rating (0 to 100), Galium ([4]; 125 g ai/ha, postemergence): 70
- Plant response rating (0 to 100), Galium ([4]; 250 g ai/ha, postemergence): 95
- Plant response rating, Galium [4, 19]: 50
- Plant response rating, Galium ([4]; Postemergence, 62 g ai/ha): 50
- Plant response rating, Barnyardgrass [5, 16]: 60
- Barnyardgrass plant response rating [5, 21]: 100
- Plant response rating (0 to 100), Ragweed ([6]; 125 g ai/ha, postemergence): 55
- Plant response rating (0 to 100), Ragweed ([6]; 250 g ai/ha, postemergence): 65
- Plant response rating, Ragweed [6, 19]: 35
- Plant response rating, Ragweed ([6]; Postemergence, 62 g ai/ha): 40
- Plant response rating, Corn [7, 16]: 0
- Corn plant response rating [7, 21]: 70
- Plant response rating (0 to 100), Lambsquarters ([8]; 125 g ai/ha, postemergence): 70
- Plant response rating (0 to 100), Lambsquarters ([8]; 250 g ai/ha, postemergence): 85
- Plant response rating, Lambsquarters [8, 19]: 70
- Plant response rating, Lambsquarters ([8]; Postemergence, 62 g ai/ha): 70
- Plant response rating (0 to 100), Foxtail, Giant ([9]; 125 g ai/ha, postemergence): 15
- Plant response rating (0 to 100), Foxtail, Giant ([9]; 250 g ai/ha, postemergence): 30
- Plant response rating, Foxtail, Giant [9, 19]: 10
- Plant response rating, Foxtail, Giant ([9]; Postemergence, 62 g ai/ha): 10
- Plant response rating (0 to 100), Velvetleaf ([10]; 125 g ai/ha, postemergence): 40
- Plant response rating (0 to 100), Velvetleaf ([10]; 250 g ai/ha, postemergence): 60
- Plant response rating, Velvetleaf [10, 19]: 25
- Plant response rating, Velvetleaf ([10]; Postemergence, 62 g ai/ha): 35
- Plant response rating (0 to 100), Blackgrass ([11]; 125 g ai/ha, postemergence): 30
- Plant response rating (0 to 100), Blackgrass ([11]; 250 g ai/ha, postemergence): 30
- Plant response rating, Blackgrass [11, 19]: 10
- Plant response rating, Blackgrass ([11]; Postemergence, 62 g ai/ha): 15

From patent US9695155B2, “Herbicidal substituted pyrimidinyloxy benzene compounds” (E. I. DU PONT DE NEMOURS AND COMPANY, priority 2013, dated 2017)
